Tests used:
activated T lymphocytes [1] = experiment: Cytotoxicity with chromogenic reporter of mitochondrial activity, activated T lymphocytes; assay type: cell-based, Human; conditions: 48 hr, absorbance 490 nm, FIG. 1 or 2
Procedure: (§1) Human peripheral blood mononuclear cells (PBMC), were purchased from Clonetics, San Diego (cat. no. CC2702). These cells were primarily enriched in T lymphocytes by a process of leukapheresis and density gradient centrifugation (Clonetics), and contain some monocytes and no B lymphocytes or Dendritic cells. Cells are cultured (0.75×10^6 cells/ml) in RPMI 1640 medium containing 10% fetal bovine serum (Gibco), 2 mM L-Glutamine, 25 mM Hepes, 1 mM sodium pyruvate, 1 mM non essential aminoacids (NEAA) and 1% penicillin/streptomycin solution. Cells were then activated with 100 ng/ml of murine monoclonal antibody to the human T cell receptor (Liu, Y-C., et al., J. Biol. Chem. 272: 9979 (1996)). Cells were incubated at 37° C. in a 5% CO2-95% humidity incubator for 3 days. […] In a parallel experiment, resting T lymphocytes that were not activated in the above mentioned method were used directly in an experiment.
(§2) An aliquot of 45 μl of activated or resting T lymphocytes (containing 10^5 cells) was added to wells of a 96-well microtiter plate containing 5 μl of a 10% DMSO in RPMI 1640 medium containing different dilutions of the test compounds. […] Using a plate reader (Model 1420, Wallac Instruments), samples were read at absorbance 490 nm.

resting T lymphocytes [2] = experiment: Cytotoxicity with chromogenic reporter of mitochondrial activity, resting T lymphocytes; assay type: cell-based, Human; conditions: 48 hr, absorbance 490 nm, FIG. 1 or 2
Procedure: as §1, §2

resting T lymphocytes [3] = experiment: Caspase cascade activation with fluorogenic reporter, resting T lymphocytes; assay type: cell-based, Human; conditions: for Induction of apoptosis in resting T cells (in words): 24 hr; for Caspase Induction in Resting T Cells 24 Hr Induction (Ratio): resting human T lymphocytes, 24 hr incubation, ratio Net Sample RFU/Net Control RFU
Procedure: (§3) Human peripheral blood mononuclear cells (PBMC), were purchased from Clonetics, San Diego (cat. No. CC2702). These cells were primarily enriched in T lymphocytes by a process of leukapheresis and density gradient centrifugation (Clonetics), and contain some monocytes and no B lymphocytes or Dendritic cells. Cells are cultured (0.75×10^6 cells/ml) in RPMI 1640 medium containing 10% fetal bovine serum (Gibco), 2 mM L-Glutamine, 25 mM Hepes, 1 mM sodium pyruvate, 1 mM non-essential aminoacids (NEAA) and 1% penicillin/streptomycin solution. Cells were then activated with 100 ng/ml of murine monoclonal antibody (OKT3) to the human T cell receptor (Liu, Y-C., et al., J. Biol. Chem 272: 9979 (1996)). Cells were incubated at 37° C. in a 5% CO2-95% humidity incubator for 3 days. […] In a parallel experiment, resting T lymphocytes that were not activated by the above method were used directly in an experiment. An aliquot of 45 μl of activated or resting T lymphocytes (containing 10^5 cells) was added to a well of a 96-well microtiter plate containing 5 μl of a 10% DMSO in RPMI 1640 medium containing serial 2-fold dilution of the different test compounds starting at a concentration of 10 uM.
(§4) An aliquot of 45 μl of cells was also added to a well of a 96-well microtiter plate containing 5 μl of a 10% DMSO in RPMI 1640 medium without the test compounds as the control sample. The samples were gently mixed by agitation and then incubated at 37° C. for 24 hr in a 5% CO2-95% humidity incubator. After incubation, the samples were removed from the incubator and 50 μl of a solution containing 20 μM of N-(Ac-DEVD)-N′-ethoxycarbonyl-R110 (SEQ ID NO. 1) fluorogenic substrate U.S. Pat. No. 6,342,611; WO 99/18856), 20 mM DTT(Sigma) in Hanks Balanced Salt Solution (HBSS, Gibco) was added. The samples were mixed by agitation and incubated for 1 hr at room temperature. Using a fluorescent plate reader (Model 1420, Wallac Instruments), an initial reading (T=0) was made approximately […] after addition of the substrate solution, employing excitation at 485 nm and emission at 530 nm, to determine the background fluorescence of the control sample. After the 1 hr incubation, the samples were read for fluorescence as above (T=1 hr).
(§5) Calculation: Measured relative fluorescence unit (RFU) values were used to calculate the gain in fluorescence of the sample with the test compound as follows:
(§6) Sample RFU(T=1 hr)−Sample RFU(T=0)=Net Sample RFU (4)
(§7) and the background gain in fluorescence of the control sample (lacking the test compound) as follows:
(§8) Control RFU(I=1 hr)−Control RFU(I=0)=Net Control RFU (5)
(§9) The relative potency of a given test compound is given by the following ratio:
(§10) (Net Sample RFU)/(Net Control RFU) (6)

activated T lymphocytes [4] = experiment: Caspase cascade activation with fluorogenic reporter, activated T lymphocytes; assay type: cell-based, Human; conditions: for Caspase Activity in Activated Cells 24 Hr Induction (Ratio): OKT3-activated human T lymphocytes, 24 hr incubation, ratio Net Sample RFU/Net Control RFU; for Induction of apoptosis in activated T cells (in words): 24 hr
Procedure: as §3, §4, §5, §6, §7, §8, §9, §10

[5] = system: collagen induced arthritis; experiment: Collagen-induced arthritis (CIA) mouse model; assay type: in vivo; conditions: 1 mg/kg subcutaneously daily from 2nd immunization (Day 21), DBA/1 mice, FIG. 3

SMILES | Cytotoxicity to activated T cells (in words) (activated T lymphocytes [1]) | Cytotoxicity to resting T cells (in words) (resting T lymphocytes [2]) | Induction of apoptosis in resting T cells (in words) (resting T lymphocytes [3]) | Caspase Induction in Resting T Cells 24 Hr Induction (Ratio) (resting T lymphocytes [3]) | Caspase Activity in Activated Cells 24 Hr Induction (Ratio) (activated T lymphocytes [4]) | Induction of apoptosis in activated T cells (in words) (activated T lymphocytes [4]) | Decrease in cumulative CIA score [5]
CN(Cc1cnc2nc(N)nc(N)c2n1)c1ccc(C(=O)N[C@@H](CCC(=O)O)C(=O)O)cc1 [methotrexate] | only cytotoxic to activated | not to resting T lymphocytes | – | – | – | – | –
CC(C)=CCC[C@]1(C)C=Cc2c(O)c3c(c(CC=C(C)C)c2O1)O[C@]12C(=C[C@@H]4C[C@H]1C(C)(C)O[C@@]2(C/C=C(/C)C(=O)O)C4=O)C3=O [gambogic acid] | – | – | induced apoptosis in both activated and resting T cells | 2.0 | 3.4 | induced apoptosis in both activated and resting T cells | –
C[C@]12C=CC(=O)C=C1CC[C@@H]1[C@@H]2[C@@H](O)C[C@@]2(C)[C@H]1CC[C@]2(O)C(=O)CO [predisolone, Prednisolone] | – | – | – | – | – | – | 75%
Cc1ccc(C2CC(c3c(O)cc(C)oc3=O)=NCCS2)cc1 (stereo not shown) [5-(4-hydroxy-6-methyl-2H-pyran-2-one-3-yl)-7-(4-methylphenyl)-2,3,6,7-tetrahydro-1,4-thiazepine] | – | – | did not induce apoptosis in either cell type | 1.0 | 1.0 | did not induce apoptosis in either cell type | –
CN[C@@H]1C[C@H]2O[C@@](C)([C@@H]1OC)n1c3ccccc3c3c4c(c5c6ccccc6n2c5c31)C(=O)NC4 [staurosporine] | cytotoxic to both activated and resting T cells | cytotoxic to both activated and resting T cells | – | – | – | – | –
